Experimental data: patent publication US10278962B2, “Tricyclic analogues, preparation method and uses thereof” (SHANGHAI INSTITUTE OF MATERIA MEDICA, CHINESE ACADEMY OF …, priority 2015, dated 2019)

Assays:
ACAT2 [1] = target: T1, ACAT2 (Homo sapiens (Human), UniProt O75908); test: Inhibitory effect on ACAT2 activity, NBD22-fluorescent labeled sterol method in intact HepG2 cells; type: cell-based; details: for IC50: NBD22-fluorescent labeled sterol, 6 hours incubation; for inhibition rate % on ACAT2 activity: relative inhibition rate with Pyripyropene A (0.2 μM) as the 100% inhibition control
Description: An inhibition curve was plotted based on that different concentrations of compounds would cause the fluorescence intensity to change by inhibiting the synthesis of the ester containing NBD22-fluorescent labeled sterol, thereby IC50 was calculated.
HepG2 cells were cultured in a 96-well plate at a starting density of 1.5×10^4 cells per well for 24 hours. After the cholesterol mixture was well mixed, the cells were cultured for another 24 hours. Then NBD22-fluorescent labeled sterol at a final concentration of 0.5 μg/ml, and compounds at a final concentration gradient of 0, 0.008, 0.04, 0.2, 1 and 5 μM were added. Three wells were set for each concentration. After incubating for 6 hours, the fluorescence intensity was measured using a fluorescence analyzer (E488, A535). The fluorescence intensity values were plotted against different concentrations of the compounds and IC50 was obtained.

ACAT2 [2] = target: T1, ACAT2; test: Cholesterol oxidase method for ACAT activity in HepG2 cells, ACAT2; type: cell-based; details: 10 μg/ml cholesterol, 9 hours
Description: HepG2 cells were used for testing the inhibitory effect of compounds at different concentrations on ACAT1 or ACAT2 activity, thereby obtaining IC50 to calculate SI(ACAT1-IC50/ACAT2-IC50).
HepG2 cells were cultured in a 6-well plate at a starting density of 4×10^5 cells per well for 24 hours, then the medium was replaced and 10 μg/ml of cholesterol and the compounds at different concentrations were added. The cells were cultured for another 9 hours and cholesterol amounts of the cells were measured with Cholesterol Assay kit.

T1 sequence (O75908 whole entry): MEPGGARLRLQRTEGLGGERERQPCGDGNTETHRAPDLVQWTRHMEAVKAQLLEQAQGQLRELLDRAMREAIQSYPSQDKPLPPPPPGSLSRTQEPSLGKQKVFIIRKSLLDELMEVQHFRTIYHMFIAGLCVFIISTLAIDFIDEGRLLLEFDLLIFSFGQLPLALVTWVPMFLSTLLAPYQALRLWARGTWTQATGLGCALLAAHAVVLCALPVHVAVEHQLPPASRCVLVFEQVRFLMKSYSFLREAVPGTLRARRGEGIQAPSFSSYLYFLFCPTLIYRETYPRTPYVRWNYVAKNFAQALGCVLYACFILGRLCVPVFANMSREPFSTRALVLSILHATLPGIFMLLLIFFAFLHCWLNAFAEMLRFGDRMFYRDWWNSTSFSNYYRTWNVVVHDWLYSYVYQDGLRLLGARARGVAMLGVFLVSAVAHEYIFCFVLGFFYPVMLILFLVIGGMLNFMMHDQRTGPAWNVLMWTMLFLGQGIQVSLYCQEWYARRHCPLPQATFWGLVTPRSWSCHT

inhibition rate % on ACAT2 activity (ACAT2 [1]) [%] | SMILES | IC50 (ACAT2 [1]) [nM] | IC50 (ACAT2 [2]) [nM]
 | CC(=O)OC[C@](C)(O)[C@H]1C[C@@H](O)[C@]2(C)Oc3cc(-c4cccnc4)oc(=O)c3[C@H](O)[C@H]2C1 [Compound 29] | 81 | 
 | CC(=O)OCC(C)(OC(C)=O)[C@@H]1C[C@H](OC(C)=O)[C@@]2(C)Oc3cc(-c4cccnc4)oc(=O)c3[C@@H](O)[C@@H]2C1 (stereo partly shown) [Compound 15] | 831 | 
 | CC(=O)OCC(C)(OC(C)=O)[C@H]1CC2[C@@H](O)c3c(cc(-c4cccnc4)oc3=O)O[C@]2(C)[C@@H](OC(C)=O)C1 (stereo in doubt) [Compound 16] | 245 | 
90 | CC(=O)OCC(C)(OC(C)=O)[C@@H]1C[C@H](OC(C)=O)[C@@]2(C)Oc3cc(-c4cccnc4)oc(=O)c3C(=O)[C@@H]2C1 (stereo partly shown) [Compound 3] |  | 
 | CC(=O)OC[C@](C)(OC(C)=O)[C@@H]1C[C@@H]2[C@@H](O)c3c(cc(-c4cccnc4)oc3=O)O[C@@]2(C)[C@H](OC(C)=O)C1 [Compound 21] | 78 | 55
 | CC(=O)OC[C@](C)(OC(C)=O)[C@@H]1C[C@@H]2[C@H](O)c3c(cc(-c4cccnc4)oc3=O)O[C@@]2(C)[C@H](OC(C)=O)C1 [Compound 26] | 433 | 
104 | CC(=O)OCC(COC(C)=O)[C@@H]1C[C@H](OC(C)=O)[C@@]2(C)Oc3cc(-c4cccnc4)oc(=O)c3C(=O)[C@@H]2C1 [Compound 2] |  | 
 | CC(=O)OCC(C)(OC(C)=O)[C@@H]1C[C@H](OC(=O)c2ccc(C#N)cc2)[C@@]2(C)Oc3cc(-c4cccnc4)oc(=O)c3[C@@H](OC(C)=O)[C@@H]2C1 (stereo partly shown) [Compound 8] | 86 | 61
 | CC(O)(COC(=O)c1ccc(C#N)cc1)[C@@H]1C[C@H](OC(=O)c2ccc(C#N)cc2)[C@@]2(C)Oc3cc(-c4cccnc4)oc(=O)c3C(=O)[C@@H]2C1 (stereo partly shown) [Compound 13] | 23 | 12
90 | CC(=O)OCC(COC(C)=O)[C@@H]1C[C@H](OC(C)=O)[C@@]2(C)Oc3cc(-c4cccnc4)oc(=O)c3[C@@H](O)[C@@H]2C1 [Compound 6] |  | 
 | CC(=O)OC[C@](C)(OC(C)=O)[C@H]1C[C@@H](OC(C)=O)[C@]2(C)Oc3cc(-c4cccnc4)oc(=O)c3[C@@H](O)[C@@H]2C1 [Compound 22] | 86 | 90
 | CC(O)(COC(=O)c1ccc(C#N)cc1)[C@@H]1C[C@H](O)[C@@]2(C)Oc3cc(-c4cccnc4)oc(=O)c3C(=O)[C@@H]2C1 (stereo partly shown) [Compound 14] | 103 | 129
 | CC(=O)OCC(C)(OC(C)=O)[C@@H]1C[C@H](OC(C)=O)[C@@]2(C)Oc3cc(-c4cccnc4)oc(=O)c3[C@@H](O)[C@@H]2C1 (stereo partly shown) [Compound 7] | 152 | 147
